Data reported in ChEMBL document CHEMBL1146378, “Synthesis and cytotoxicity of novel fatty acid-nucleoside conjugates” (2007).
The source made the active and inactive calls. No cut-off for these calls is given here.

Tests used:
Type in all cases: functional
A549 [1] = test: Cytotoxicity against human A549 cells at 100 uM after 48 hrs by MTT assay; settings: for inhibition at 100 µM: A549, 48 h
EC9706 [2] = test: (§1) Cytotoxicity against human Ec9706 cells at 400 uM after 48 hrs by MTT assay
EC9706 [3] = test: (§2) Cytotoxicity against human Ec9706 cells at 100 uM after 48 hrs by MTT assay
EC9706 [4] = test: (§3) Cytotoxicity against human Ec9706 cells at 200 uM after 48 hrs by MTT assay
A549 [5] = test: Cytotoxicity against human A549 cells at 200 uM after 48 hrs by MTT assay; settings: for inhibition at 200 µM: A549, 48 h
A549 [6] = test: Cytotoxicity against human A549 cells at 400 uM after 48 hrs by MTT assay; settings: for inhibition at 400 µM: A549, 48 h
EC9706 [7] = test: (§4) Cytotoxicity against human Ec9706 cells at 50 uM after 48 hrs by MTT assay
A549 [8] = test: Cytotoxicity against human A549 cells at 50 uM after 48 hrs by MTT assay; settings: for inhibition at 50 µM: A549, 48 h
[9] = as §1; settings: EC9706, 48 h
[10] = as §2; settings: EC9706, 48 h
[11] = as §3; settings: EC9706, 48 h
[12] = as §4; settings: EC9706, 48 h

Question: With O=c1c(F)cn([C@H]2CCCO2)c(=O)n1CCO as the compound, how does the Activity (A549 [1]) read?
Answer: inactive

Question: What about the Activity (EC9706 [2]) of the same compound?
Answer: inactive

Question: What about the Activity (EC9706 [3]) of the same compound?
Answer: inactive

Question: And the Activity (EC9706 [4])?
Answer: inactive

Question: What about the Activity (A549 [5]) of the same compound?
Answer: inactive

Question: And the Activity (A549 [6])?
Answer: inactive

Question: What does the source list for CCCCCCCCCCCC(=O)OCCn1c(=O)c(F)cn([C@H]2CCCO2)c1=O?
Answer: Activity (EC9706 [7]): inactive; Activity (A549 [8]): inactive; Activity (A549 [1]): inactive; Activity (EC9706 [3]): inactive

Question: With CCCCC/C=C\C/C=C\CCCCCCCC(=O)OCCn1c(=O)c(F)cn([C@H]2CCCO2)c1=O as the compound, how does the Activity (EC9706 [7]) read?
Answer: inactive

Question: What about the inhibition at 50 µM (A549 [8]) of the same compound?
Answer: 1.8%

Question: And the inhibition at 100 µM (A549 [1])?
Answer: 11%

Question: What about the inhibition at 400 µM [9] of the same compound?
Answer: 54.4%

Question: What about the inhibition at 100 µM [10] of the same compound?
Answer: 14.4%

Question: What about the inhibition at 200 µM [11] of the same compound?
Answer: 31.9%

Question: And the inhibition at 200 µM (A549 [5])?
Answer: 24.7%

Question: And the inhibition at 400 µM (A549 [6])?
Answer: 90.7%

Question: Which results are given for CCCCC/C=C\C/C=C\C/C=C\C/C=C\CCCC(=O)OCCn1c(=O)c(F)cn([C@H]2CCCO2)c1=O?
Answer: inhibition at 50 µM [12]: 19.3%; inhibition at 50 µM (A549 [8]): 1.6%; inhibition at 100 µM (A549 [1]): 33.8%; inhibition at 400 µM [9]: 69.9%; inhibition at 100 µM [10]: 30.8%; inhibition at 200 µM [11]: 59.9%; inhibition at 200 µM (A549 [5]): 78.2%; inhibition at 400 µM (A549 [6]): 92.1%

Question: With CCCCCCCC/C=C\CCCCCCCC(=O)OCCn1c(=O)c(F)cn([C@H]2CCCO2)c1=O as the compound, how does the inhibition at 50 µM [12] read?
Answer: 3.7%

Question: What about the inhibition at 50 µM (A549 [8]) of the same compound?
Answer: 2.5%

Question: And the inhibition at 100 µM (A549 [1])?
Answer: 4.8%

Question: And the inhibition at 100 µM [10]?
Answer: 4.9%

Question: Which Activity (EC9706 [7]) does the source give for CCCCCCCCCCCCCCCCCC(=O)OCCn1c(=O)c(F)cn([C@H]2CCCO2)c1=O here?
Answer: inactive

Question: What about the Activity (A549 [8]) of the same compound?
Answer: inactive

Question: And the Activity (A549 [1])?
Answer: inactive

Question: And the Activity (EC9706 [3])?
Answer: inactive

Question: Which inhibition at 100 µM (A549 [1]) does the source give for O=c1[nH]c(=O)n(C2CCCO2)cc1F (stereo not given) [TEGAFUR] here?
Answer: 12.7%

Question: What about the inhibition at 400 µM [9] of the same compound?
Answer: 17.4%

Question: And the Activity (EC9706 [3])?
Answer: inactive

Question: And the inhibition at 200 µM [11]?
Answer: 7.8%

Question: And the inhibition at 200 µM (A549 [5])?
Answer: 15.2%

Question: And the inhibition at 400 µM (A549 [6])?
Answer: 17.8%
